Results on four compounds are retold here after ChEMBL document CHEMBL5576126, “Discovery of Novel, Selective, and Nonbasic Agonists for the Kappa-Opioid Receptor Determined by Salvinorin A-Based Virtual Screening” (J Med Chem, 2024).

Activity calls are given as the source filed them. The calls are words filed in the database; no cut-off is given here.

The target in experiment [1] is Kappa-type opioid receptor (Homo sapiens) (UniProt P41145). The experiment can be described thus: Binding affinity to human Kappa-opioid receptor expressed in CHO cell membrane assessed as inhibition of [3H]-U69593 binding to KOR incubated for 60 mins by radioligand binding assay. The class given is cell membranes.
Kappa-type opioid receptor (Homo sapiens), sequence (P41145 whole entry, the tested form may be a part): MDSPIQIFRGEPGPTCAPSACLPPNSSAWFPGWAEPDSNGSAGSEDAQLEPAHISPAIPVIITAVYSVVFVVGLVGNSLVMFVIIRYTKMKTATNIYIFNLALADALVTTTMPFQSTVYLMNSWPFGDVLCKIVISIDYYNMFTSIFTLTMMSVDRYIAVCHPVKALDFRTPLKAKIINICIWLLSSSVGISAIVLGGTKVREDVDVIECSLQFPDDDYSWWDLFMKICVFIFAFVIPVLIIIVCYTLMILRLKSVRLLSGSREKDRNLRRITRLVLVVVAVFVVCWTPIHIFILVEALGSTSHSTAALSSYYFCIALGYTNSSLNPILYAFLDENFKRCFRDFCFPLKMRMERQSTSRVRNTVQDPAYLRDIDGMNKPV
In experiment [2] the target is Delta-type opioid receptor (Homo sapiens) (UniProt P41143). The experiment can be described thus: Binding affinity to human Delta-opioid receptor expressed in CHO cell membrane assessed as inhibition of [3H]DPDPE binding to DOR at 10 uM incubated for 60 mins by radioligand binding assay. The class given is cell membranes.
Delta-type opioid receptor (Homo sapiens), sequence (P41143 whole entry, the tested form may be a part): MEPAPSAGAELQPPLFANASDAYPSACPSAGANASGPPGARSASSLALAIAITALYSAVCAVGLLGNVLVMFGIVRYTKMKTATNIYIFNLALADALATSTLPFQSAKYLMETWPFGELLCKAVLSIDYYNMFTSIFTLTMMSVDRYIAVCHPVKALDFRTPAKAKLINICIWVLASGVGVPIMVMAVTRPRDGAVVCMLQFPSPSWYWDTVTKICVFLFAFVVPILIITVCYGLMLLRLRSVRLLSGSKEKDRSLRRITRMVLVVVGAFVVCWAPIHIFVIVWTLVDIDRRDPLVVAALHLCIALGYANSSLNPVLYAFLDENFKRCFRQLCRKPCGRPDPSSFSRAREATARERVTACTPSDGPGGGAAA
Experiment [3] addresses Kappa-type opioid receptor (Homo sapiens) (UniProt P41145). The experiment can be described thus: Agonist activity at human Kappa-opioid receptor expressed in human U2OS cells co-expressing enzyme acceptor tagged beta-arrestin2 fusion protein assessed as increase in beta-arrestin2 recruitment at 10 uM incubated for 180 mins by DiscoverX pathHunter express beta-arrestin2 assay. The class given is functional, cell-based.

For experiment [4] the target is unchanged. The experiment can be described thus: Agonist activity at human Kappa-opioid receptor expressed in CHO cell membrane assessed as induction of [35S]GTPgammaS binding by measuring G protein activation incubated for 60 mins by liquid scintillation counting assay. The class given is functional, cell membranes. (In general: GTPγS resists hydrolysis and so accumulates on activated G proteins.)

Experiment [5] has the same target. The experiment can be described thus: Potency index, ratio of SalA-VS-07 Ki to test compound Ki for Binding affinity to human Kappa-opioid receptor expressed in CHO cell membrane assessed as inhibition of [3H]-U69593 binding to KOR. The class given is cell membranes. Conditions: filed as agonist.

In the case of `Cc1cc2n(n1)C1(CCN(C(=O)c3ccc(Cl)cc3)CC1)CC(=O)N2CC1CC1`, the Activity entry in experiment [1] (filed as partial agonist) was “Dose-Dependent Effect”. In addition, the outcome in experiment [2] and in experiment [3] was inactive.

Regarding `Cc1cc2n(n1)C1(CCN(C(=O)c3ccncc3)CC1)CC(=O)N2CC1CC1`, in experiment [4], the result was inactive.

Consider `Cc1cc2n(n1)C1(CCN(C(=O)c3cccc(F)c3)CC1)CC(=O)N2CC1CC1`, for which the Activity result in experiment [1] (filed as agonist) is “Dose-Dependent Effect”. The result in experiment [2] and in experiment [3] was inactive. The Ratio Ki in experiment [5] came out at 6.

For `CCO[C@@]12Cc3c([nH]c4ccccc34)[C@]3(C)Oc4c(O)ccc5c4[C@@]31CCN(CC1CC1)C2C5`, in experiment [2], the outcome was Active.
